The nature of this data set: Human liver microsome (HLM) metabolic stability assay. The note with it: pooled human liver microsomes, HLM 0.5 mg/mL, test compound 0.5 μM, NADPH, 37° C. Type of data set: in vitro ADME. Here is the method: Microsomal Assay: Human liver microsomes (20 mg/mL) were obtained from Xenotech, LLC (Lenexa, Kans.). β-nicotinamide adenine dinucleotide phosphate, reduced form (NADPH), magnesium chloride (MgCl2), and dimethyl sulfoxide (DMSO) were purchased from Sigma-Aldrich. The incubation mixtures were prepared according to Table 2:
Determination of Metabolic Stability: Two aliquots of this reaction mixture were used for a compound of this invention. The aliquots were incubated in a shaking water bath at 37° C. for 3 minutes. The test compound was then added into each aliquot at a final concentration of 0.5 μM. The reaction was initiated by the addition of cofactor (NADPH) into one aliquot (the other aliquot lacking NADPH served as the negative control). Both aliquots were then incubated in a shaking water bath at 37° C. Fifty microliters (50 μL) of the incubation mixtures were withdrawn in triplicate from each aliquot at 0, 5, 10, 20, and 30 minutes and combined with 50 μL of ice-cold acetonitrile to terminate the reaction. The same procedure was followed for dasatinib and for the positive control, 7-ethoxycoumarin. Testing was done in triplicate.
Data analysis: The in vitro half-lives (t1/2s) for test compounds were calculated from the slopes of the linear regression of % parent remaining (ln) vs incubation time relationship. in vitro t1/2=0.693/k
k=−[slope of linear regression of % parent remaining(ln) vs incubation time]
Data analysis was performed using Microsoft Excel Software.
The metabolic stability of compounds of Formula I was tested using pooled liver microsomal incubations. Full scan LC-MS analysis was then performed to detect major metabolites. Samples of the test compounds, exposed to pooled human liver microsomes, were analyzed using HPLC-MS (or MS/MS) detection. For determining metabolic stability, multiple reaction monitoring (MRM) was used to measure the disappearance of the test compounds. For metabolite detection, Q1 full scans were used as survey scans to detect the major metabolites.
Background: Liver microsomes are a subcellular fraction often used to study metabolism.

The mark [1] stands for this setting: 0-30 minutes, Experiment 1, read-out: t1/2 (min) Experiment 1.
The mark [2] stands for this setting: average of Experiments 1 and 2, read-out: t1/2 (min) Average.
Where [3] appears, read: 0-30 minutes, Experiment 2, read-out: t1/2 (min) Experiment 2.

Molecules are shown by their SMILES. Like-named read-outs stand apart in the source and are kept apart here.

As to `[2H]C([2H])(O)CN1CCN(c2cc(Nc3ncc(C(=O)Nc4c(Cl)cccc4C([2H])([2H])[2H])s3)nc(C)n2)CC1` [Compound 101, N-(2-Chloro-6-(methyl-d3)phenyl)-2-(6-(4-(2,2-d2-2-hydroxyethyl)piperazin-1-yl)-2-methylpyrimidin-4-ylamino)thiazole-5-carboxamide], the half-life at 0.5 μM reads like this: under setting [1], 17.7 min; under setting [2], 17.9 min.

Take `[2H]C([2H])([2H])c1cccc(Cl)c1NC(=O)c1cnc(Nc2cc(N3C([2H])([2H])C([2H])([2H])N(C([2H])([2H])C([2H])([2H])O)C([2H])([2H])C3([2H])[2H])nc(C)n2)s1` [Compound 115, N-(2-Chloro-6-(methyl-d3)phenyl)-2-(6-(4-(1,1,2,2-d4-2-hydroxyethyl)-(piperazin-d8)-1-yl)-2-methylpyrimidin-4-ylamino)thiazole-5-carboxamide]: the half-life at 0.5 μM turned out to be 17.3 min under setting [1], 18.2 min under setting [3] and 17.8 min under setting [2].

For `[2H]C([2H])([2H])c1cccc(Cl)c1NC(=O)c1cnc(Nc2cc(N3CCN(C([2H])([2H])C([2H])([2H])O)CC3)nc(C)n2)s1` [Compound 103, N-(2-Chloro-6-(methyl-d3)phenyl)-2-(6-(4-(1,1,2,2-d4-2-hydroxyethyl)piperazin-1-yl)-2-methylpyrimidin-4-ylamino)thiazole-5-carboxamide], the half-life at 0.5 μM under setting [1] was 19.4 min, the half-life at 0.5 μM under setting [3] is 17.2 min and the half-life at 0.5 μM under setting [2] is 18.3 min.

As to `[2H]C1([2H])N(CCO)C([2H])([2H])C([2H])([2H])N(c2cc(Nc3ncc(C(=O)Nc4c(C)cccc4Cl)s3)nc(C)n2)C1([2H])[2H]` [Compound 117, N-(2-Chloro-6-methylphenyl)-2-(6-(4-(2-hydroxyethyl)-(piperazin-d8)-1-yl)-2-methylpyrimidin-4-ylamino)thiazole-5-carboxamide], the half-life at 0.5 μM amounted to 19.6 min under setting [1], 18.5 min under setting [3] and 19.1 min under setting [2].

`Cc1nc(Nc2ncc(C(=O)Nc3c(C)cccc3Cl)s2)cc(N2CCN(CCO)CC2)n1` [Dasatinib, 2-{6-[4-(2-Hydroxy-ethyl)-piperazin-1-yl]-2-methyl-pyrimidin-4-ylamino}-thiazole-5-carboxylic acid (2-chloro-6-methyl-phenyl)-amide, reference compound]: the half-life at 0.5 μM runs as follows: under setting [1], 16 min; under setting [3], 14.6 min; under setting [2], 15.3 min.
